US20160361314A1, “COMBINATION OF AN ALK INHIBITOR AND A CDK INHIBITOR FOR THE TREATMENT OF CELL PROLIFERATIVE DISEASES” (NOVARTIS AG, priority 2013, published 2016)
Where two headings read alike, the source gives them in different places.

Assays:
Format in all cases: cell-based
[1] = test system: NB-1643 human neuroblastoma cells; test: Loewe additivity (CHALICE) synergy screen, CellTiter-Glo viability, 7x7 dose matrix; settings: NB-1643 (R1275Q), Table 2; for Max Combo Effect: in % (unit assumed)
Procedure: The synergistic interaction of drug combinations were assessed based on the Loewe Additivity Model using Chalice software [CombinatoRx, Cambridge Mass.]). […] 27:659-66. The software compares the response (% inhibition or % reduction of cell viability) of drug treatment from a combination of two agents to the response of the agents acting alone, against the drug-with-itself dose-additive reference model (the Loewe Additivity Model). Deviations from dose additives can be assessed numerically with a “synergy score” which quantifies the overall strength of combination effect. A synergy score >0 indicates a synergistic combination. In order to ensure only strongly synergistic combinations were selected, the acceptance criteria were set at a higher level. Strongly synergistic combinations were defined as having both a synergy score >2, a synergy score that is twice as large as the background (non-synergy) model would predict, and a maximum efficacy of >100, a value equivalent to stasis, as determined from the growth inhibition calculation.
After treatment, cell viabilty (quantity of viable cells) for each test mixtures were determined by the CellTiter-Glo® (CTG) luminescent cell viability assay (Promega) described in the Assay section, infra. […] The response to treatment (% reduction of cell viability) was analyzed using Chalice software [CombinatoRx, Cambridge Mass.]). Data evaluation and graph generation were performed using Microsoft Excel software and Chalice software.
The combinations were tested in duplicate using a 7×7 dose matrix block in 1536 well format with a cell proliferation readout as described in the Assay section infra.
All synergy calculations were performed using CHALICE software package from Zalicus and potential synergistic interactions between compound combinations were assessed using the Excess Inhibition 2D matrix according to the Loewe additivity model and were reported as synergy score (Table 10) (Lehar et al). Strongly synergistic combination were identified as having both (1) a synergy score greater than 2, a synergy score that is twice as large as the background (non-synergy) model would predict, and (2) a maximum efficacy of >100, a value roughly equivalent to stasis, as determined from the growth inhibition calculation.
Cell viability were determined by measuring cellular ATP content using the CellTiter-Glo® (CTG) luminescent cell viability assay (Promega). […] Reduced and enhanced luminescent signal values (responses) were calculated relative to untreated (control) cells, and the calculated signal value proportional to the cell viability.
Synergistic combinations were identified based on the Loewe Addivity Model. […]

[2] = test system: NBEBC1 neuroblastoma cells (WT); test: xCELLigence in vitro growth inhibition and Chou-Talalay combination index; settings: Homo sapiens, Neuroblastoma cell, single agent
[3] = test system: SH-SY5Y (F1174L) human neuroblastoma cells; test: Cell morphology and cell death by optical microscopy; settings: each compound at its IC50, 72 hours after treatment
From the text: Synergistic anti-proliferative effect of the combination of our invention was visualized by optical microscopy. […] Seventy-two hours after treatment, the treated samples were compared to the untreated samples (vehicle) by optical microscopy and recorded in micrographs (FIGS. 10A to D).

[4] = read-out: Dm (median-effect dose)

Structure (SMILES)	Synergy score (Mean) [1]	Max Combo Effect [1]	IC50 ([2]; 72 hours, read-out: IC50) [µM]	IC50 [2, 4] [µM]	Intact cells and cell morphology by micrograph [3]
Cc1cc(Nc2ncc(Cl)c(Nc3ccccc3S(=O)(=O)C(C)C)n2)c(OC(C)C)cc1C1CCNCC1 [Compound A1, 5-chloro-N2-(2-isopropoxy-5-methyl-4-(piperidin-4-yl)phenyl)-N4-[2-(propane-2-sulfonyl)-phenyl]-pyrimidine-2,4-diamine]	1.231	151.1	1.92	1.66	significant reduction in the number of intact cells
CN(C)C(=O)c1cc2cnc(Nc3ccc(N4CCNCC4)cn3)nc2n1C1CCCC1 [Compound B, 7-cyclopentyl-N,N-dimethyl-2-((5-(piperazin-1-yl)pyridin-2-yl)amino)-7H-pyrrolo[2,3-d]pyrimidine-6-carboxamide]	0.929	76.4	0.328	1.26	minimal effect in cell numbers and cell morphology
